Experimental findings from publication PMC5218480 (PLoS ONE, 2017) are described below.

This experiment deals with MV-4-11 cells. The experiment is described as follows: Gene expression microarray analysis (Affymetrix PrimeView) and GSEA. Type of experiment: cell-based, human. The arrangement: RFU PODN (11730768_x_at) / Fold change /veh PODN (11730768_x_at) / RFU LINC00158 (11744669_a_at) / Fold change /veh LINC00158 (11744669_a_at) / RFU DUSP10 (11751237_a_at) / Fold change /veh DUSP10 (11751237_a_at) / RFU ID3 (11757404_x_at) / Fold change /veh ID3 (11757404_x_at) / RFU PLEKHG5 (11737974_s_at) / Fold change /veh PLEKHG5 (11737974_s_at) / RFU LRRC4B (11730491_at) / Fold change /veh LRRC4B (11730491_at) / RFU GIMAP4 (11747438_a_at) / Fold change /veh GIMAP4 (11747438_a_at) / RFU KRT8 (11758183_x_at) / Fold change /veh KRT8 (11758183_x_at) / RFU CNN1 (11734310_a_at) / Fold change /veh CNN1 (11734310_a_at) / RFU VPS37D (11726825_at) / Fold change /veh VPS37D (11726825_at) / RFU C10orf10 (11716522_x_at) / Fold change /veh C10orf10 (11716522_x_at) / RFU KIR2DL2 /// KIR2DL4 /// KIR2DL5A /// KIR2DL5B /// KIR2DS1 /// KIR2DS2 /// KIR2DS3 /// KIR2DS4 /// KIR3DL3 /// KIR3DL3 /// KIR3DS1 (11738374_at) / Fold change /veh KIR2DL2 /// KIR2DL4 /// KIR2DL5A /// KIR2DL5B /// KIR2DS1 /// KIR2DS2 /// KIR2DS3 /// KIR2DS4 /// KIR3DL3 /// KIR3DL3 /// KIR3DS1 (11738374_at) / RFU C1QL1 (11718748_at) / Fold change /veh C1QL1 (11718748_at) / RFU TMPRSS4 (11747572_a_at) / Fold change /veh TMPRSS4 (11747572_a_at) / RFU HAMP (11756126_x_at) / Fold change /veh HAMP (11756126_x_at) / RFU RNFT2 (11725882_a_at) / Fold change /veh RNFT2 (11725882_a_at) / RFU NR4A2 (11747474_a_at) / Fold change /veh NR4A2 (11747474_a_at) / RFU ABCC12 (11746883_a_at) / Fold change /veh ABCC12 (11746883_a_at) / RFU TMEM136 (11760407_x_at) / Fold change /veh TMEM136 (11760407_x_at) / RFU CLDN22 /// WWC2 (11732394_at) / Fold change /veh CLDN22 /// WWC2 (11732394_at) / RFU HLA-DPB1 (11760878_x_at) / Fold change /veh HLA-DPB1 (11760878_x_at) / RFU SPINT1 (11716480_a_at) / Fold change /veh SPINT1 (11716480_a_at) / RFU GAP43 (11754022_s_at) / Fold change /veh GAP43 (11754022_s_at) / RFU A4GNT (11735810_at) / Fold change /veh A4GNT (11735810_at) / RFU PRB3 (11715151_x_at) / Fold change /veh PRB3 (11715151_x_at) / RFU TUBB4B (11761932_at) / Fold change /veh TUBB4B (11761932_at) / RFU CAPN14 (11732068_a_at) / Fold change /veh CAPN14 (11732068_a_at) / RFU TMCC2 (11721928_a_at) / Fold change /veh TMCC2 (11721928_a_at) / RFU IRGQ (11745062_a_at) / Fold change /veh IRGQ (11745062_a_at) / RFU FAM174B (11720279_a_at) / Fold change /veh FAM174B (11720279_a_at) / RFU TMPRSS4 (11748680_a_at) / Fold change /veh TMPRSS4 (11748680_a_at) / RFU FAM212B (11763350_a_at) / Fold change /veh FAM212B (11763350_a_at) / RFU PLEKHG5 (11743358_a_at) / Fold change /veh PLEKHG5 (11743358_a_at) / RFU ZSCAN30 (11745921_a_at) / Fold change /veh ZSCAN30 (11745921_a_at) / RFU CMKLR1 (11741424_a_at) / Fold change /veh CMKLR1 (11741424_a_at) / RFU LOC101060620 /// MAPK8IP1 (11723275_at) / Fold change /veh LOC101060620 /// MAPK8IP1 (11723275_at) / RFU SPTSSB (11747773_x_at) / Fold change /veh SPTSSB (11747773_x_at) / RFU PRSS12 (11739890_at) / Fold change /veh PRSS12 (11739890_at) / RFU BIN1 (11741810_x_at) / Fold change /veh BIN1 (11741810_x_at) / RFU WNT11 (11732464_a_at) / Fold change /veh WNT11 (11732464_a_at) / RFU C10orf10 (11716521_a_at) / Fold change /veh C10orf10 (11716521_a_at) / RFU C5orf56 (11738089_at) / Fold change /veh C5orf56 (11738089_at) / RFU CYB561 (11721691_x_at) / Fold change /veh CYB561 (11721691_x_at) / RFU ANKRD19P (11752326_a_at) / Fold change /veh ANKRD19P (11752326_a_at) / RFU OR2T12 /// OR2T33 /// OR2T8 (11738714_s_at) / Fold change /veh OR2T12 /// OR2T33 /// OR2T8 (11738714_s_at) / RFU VCAN (11748164_a_at) / Fold change /veh VCAN (11748164_a_at) / RFU JSRP1 (11732532_at) / Fold change /veh JSRP1 (11732532_at) / RFU KRTAP10-11 (11738290_x_at) / Fold change /veh KRTAP10-11 (11738290_x_at) / RFU MYO3A (11730013_a_at) / Fold change /veh MYO3A (11730013_a_at) / RFU EBF3 (11725865_a_at) / Fold change /veh EBF3 (11725865_a_at) / RFU CAMK2N1 (11719241_x_at) / Fold change /veh CAMK2N1 (11719241_x_at) / RFU C5orf56 (11738088_a_at) / Fold change /veh C5orf56 (11738088_a_at) / RFU OLFML3 (11715873_a_at) / Fold change /veh OLFML3 (11715873_a_at) / RFU LOC100653217 /// NTM (11731650_a_at) / Fold change /veh LOC100653217 /// NTM (11731650_a_at) / RFU MAPK11 (11762145_a_at) / Fold change /veh MAPK11 (11762145_a_at) / RFU FIZ1 (11724087_x_at) / Fold change /veh FIZ1 (11724087_x_at) / RFU OASL (11726364_x_at) / Fold change /veh OASL (11726364_x_at) / RFU SOX15 (11748057_x_at) / Fold change /veh SOX15 (11748057_x_at) / RFU CD79A (11719716_a_at) / Fold change /veh CD79A (11719716_a_at) / RFU HIST1H1D (11736915_at) / Fold change /veh HIST1H1D (11736915_at) / RFU CASKIN2 (11723855_a_at) / Fold change /veh CASKIN2 (11723855_a_at) / RFU LOC730098 (11760151_x_at) / Fold change /veh LOC730098 (11760151_x_at) / RFU OR4N2 (11742367_at) / Fold change /veh OR4N2 (11742367_at) / RFU PRRT2 (11749266_a_at) / Fold change /veh PRRT2 (11749266_a_at) / RFU SNX32 (11753110_a_at) / Fold change /veh SNX32 (11753110_a_at) / RFU CDHR5 (11726645_a_at) / Fold change /veh CDHR5 (11726645_a_at) / RFU RCAN1 (11760418_a_at) / Fold change /veh RCAN1 (11760418_a_at) / RFU FAM167A (11723789_a_at) / Fold change /veh FAM167A (11723789_a_at) / RFU FAM26E (11764081_at) / Fold change /veh FAM26E (11764081_at) / RFU ISYNA1 (11749810_s_at) / Fold change /veh ISYNA1 (11749810_s_at) / RFU ACY1 (11761880_at) / Fold change /veh ACY1 (11761880_at) / RFU 11764098_at / Fold change /veh 11764098_at / RFU SAMD14 (11745864_x_at) / Fold change /veh SAMD14 (11745864_x_at) / RFU NPB (11741838_a_at) / Fold change /veh NPB (11741838_a_at) / RFU TMPRSS6 (11731388_a_at) / Fold change /veh TMPRSS6 (11731388_a_at) / RFU KRTAP10-2 (11738614_at) / Fold change /veh KRTAP10-2 (11738614_at) / RFU ARHGAP8 /// PRR5-ARHGAP8 (11727945_x_at) / Fold change /veh ARHGAP8 /// PRR5-ARHGAP8 (11727945_x_at) / RFU KRTAP5-7 /// NADSYN1 (11734609_at) / Fold change /veh KRTAP5-7 /// NADSYN1 (11734609_at) / RFU RASL12 (11751679_a_at) / Fold change /veh RASL12 (11751679_a_at) / RFU CDKN2B (11736163_a_at) / Fold change /veh CDKN2B (11736163_a_at) / RFU PRF1 (11729649_at) / Fold change /veh PRF1 (11729649_at) / RFU, ZNF638 /// ZNF638-IT1 / Fold change vs veh, ZNF638 /// ZNF638-IT1 / RFU, PANK3 / Fold change vs veh, PANK3 / RFU, SH3YL1 / Fold change vs veh, SH3YL1 / RFU, ZEB2 / Fold change vs veh, ZEB2 / RFU, NRIP1 / Fold change vs veh, NRIP1 / RFU, PTTG1IP / Fold change vs veh, PTTG1IP / RFU, CAPN2 / Fold change vs veh, CAPN2 / RFU, MED14 / Fold change vs veh, MED14 / RFU, SNORA58 / Fold change vs veh, SNORA58 / RFU, C1orf63 / Fold change vs veh, C1orf63 / RFU, LRRFIP1 / Fold change vs veh, LRRFIP1 / RFU, NDUFAF7 / Fold change vs veh, NDUFAF7 / RFU, SLC12A2 / Fold change vs veh, SLC12A2 / RFU, IBTK / Fold change vs veh, IBTK / RFU, ESF1 / Fold change vs veh, ESF1 / Fold change vs veh, TMEM50B / RFU, TAOK1 / Fold change vs veh, TAOK1 / RFU, ACBD3 / Fold change vs veh, ACBD3 / RFU, TMA16 / Fold change vs veh, TMA16 / RFU, RWDD3 / Fold change vs veh, RWDD3 / RFU, BCAT1 / Fold change vs veh, BCAT1 / RFU, EDEM3 / Fold change vs veh, EDEM3 / RFU, TMEM33 / Fold change vs veh, TMEM33 / RFU, WDR75 / Fold change vs veh, WDR75 / RFU, AHCTF1 / Fold change vs veh, AHCTF1 / RFU, TFRC / Fold change vs veh, TFRC / RFU, ZDHHC17 / Fold change vs veh, ZDHHC17 / RFU, NOM1 / Fold change vs veh, NOM1 / RFU, ARL8B / Fold change vs veh, ARL8B / RFU, ZBTB11 / Fold change vs veh, ZBTB11 / RFU, TAMM41 / Fold change vs veh, TAMM41 / RFU, KIAA1704 /// LOC100996395 / Fold change vs veh, KIAA1704 /// LOC100996395 / RFU, ING1 / Fold change vs veh, ING1 / RFU, TRMT61B / Fold change vs veh, TRMT61B / RFU, FUBP3 / Fold change vs veh, FUBP3 / RFU, TP53 / Fold change vs veh, TP53 / RFU, TNKS2 / Fold change vs veh, TNKS2 / RFU, ZFP14 / Fold change vs veh, ZFP14 / RFU, ACTR2 / Fold change vs veh, ACTR2 / RFU, PPP3R1 / Fold change vs veh, PPP3R1 / RFU, PIK3R1 / Fold change vs veh, PIK3R1 / RFU, HNRNPA1 / Fold change vs veh, HNRNPA1 / RFU, RNF170 / Fold change vs veh, RNF170 / RFU, ZNF28 / Fold change vs veh, ZNF28 / RFU, RNGTT / Fold change vs veh, RNGTT / RFU, OGT / Fold change vs veh, OGT / RFU, BRD1 / Fold change vs veh, BRD1 / RFU, MARS / Fold change vs veh, MARS / RFU, ZNF655 / Fold change vs veh, ZNF655 / RFU, FAHD1 / Fold change vs veh, FAHD1 / RFU, BDP1 / Fold change vs veh, BDP1 / RFU, LRRCC1 / Fold change vs veh, LRRCC1 / RFU, ARID1A / Fold change vs veh, ARID1A / RFU, ZNF146 / Fold change vs veh, ZNF146 / RFU, ZNF330 / Fold change vs veh, ZNF330 / RFU, GPN3 / Fold change vs veh, GPN3 / RFU, C9orf123 / Fold change vs veh, C9orf123 / RFU, N4BP2L2 / Fold change vs veh, N4BP2L2 / RFU, ARFIP1 / Fold change vs veh, ARFIP1 / RFU, FAM179B / Fold change vs veh, FAM179B / RFU, BCL10 / Fold change vs veh, BCL10 / RFU, UHRF1BP1L / Fold change vs veh, UHRF1BP1L / RFU, BET1 / Fold change vs veh, BET1 / RFU, CNOT2 / Fold change vs veh, CNOT2 / RFU, ZNF268 / Fold change vs veh, ZNF268 / Fold change vs veh, ZNF507 / RFU, DGCR2 / Fold change vs veh, DGCR2 / RFU, WDSUB1 / Fold change vs veh, WDSUB1 / Fold change vs veh, HSP90B1 /// MIR3652 / RFU, ADSS / Fold change vs veh, ADSS / RFU, GK / Fold change vs veh, GK / RFU, ZNF148 / Fold change vs veh, ZNF148 / RFU, TAF9 / Fold change vs veh, TAF9 / RFU, SLC1A5 / Fold change vs veh, SLC1A5 / RFU, SLMO2 / Fold change vs veh, SLMO2 / RFU, ABCC4 / Fold change vs veh, ABCC4 / RFU, LOC101060439 /// RAP1B / Fold change vs veh, LOC101060439 /// RAP1B / RFU, RFX7 / Fold change vs veh, RFX7 / RFU, GTPBP10 / Fold change vs veh, GTPBP10 / RFU, CNEP1R1 / Fold change vs veh, CNEP1R1 / RFU, BIVM-ERCC5 /// ERCC5 / Fold change vs veh, BIVM-ERCC5 /// ERCC5 / RFU, ILF3 / Fold change vs veh, ILF3 / RFU 11762660_at / Fold change /veh 11762660_at / RFU VCAN (11757783_s_at) / Fold change /veh VCAN (11757783_s_at) / RFU DDX43 (11728927_at) / Fold change /veh DDX43 (11728927_at) / RFU KRT8 (11758188_x_at) / Fold change /veh KRT8 (11758188_x_at) / RFU NKD1 (11759106_at) / Fold change /veh NKD1 (11759106_at) / RFU SRD5A1 (11742802_a_at) / Fold change /veh SRD5A1 (11742802_a_at) / RFU TPSAB1 /// TPSB2 (11721975_s_at) / Fold change /veh TPSAB1 /// TPSB2 (11721975_s_at) / RFU GSTM3 (11746129_a_at) / Fold change /veh GSTM3 (11746129_a_at) / RFU IL23R (11737362_x_at) / Fold change /veh IL23R (11737362_x_at) / RFU TMEM51 (11727254_a_at) / Fold change /veh TMEM51 (11727254_a_at) / RFU PIWIL2 (11732686_x_at) / Fold change /veh PIWIL2 (11732686_x_at) / RFU ORM1 (11744905_x_at) / Fold change /veh ORM1 (11744905_x_at) / RFU CCDC152 (11743942_at) / Fold change /veh CCDC152 (11743942_at) / RFU ECM1 (11717891_a_at) / Fold change /veh ECM1 (11717891_a_at) / RFU IL23R (11748794_a_at) / Fold change /veh IL23R (11748794_a_at) / RFU TNFAIP8L3 (11732012_x_at) / Fold change /veh TNFAIP8L3 (11732012_x_at) / RFU MBOAT4 (11741988_at) / Fold change /veh MBOAT4 (11741988_at) / RFU 11764193_at / Fold change /veh 11764193_at / RFU TMEM53 (11763286_at) / Fold change /veh TMEM53 (11763286_at) / RFU MAGEB2 (11727129_at) / Fold change /veh MAGEB2 (11727129_at) / RFU TMEM200A (11744735_a_at) / Fold change /veh TMEM200A (11744735_a_at) / RFU CCDC152 (11751479_a_at) / Fold change /veh CCDC152 (11751479_a_at) / RFU FAM211A (11726209_a_at) / Fold change /veh FAM211A (11726209_a_at) / RFU RGS16 (11746705_a_at) / Fold change /veh RGS16 (11746705_a_at) / RFU VCAN (11755009_s_at) / Fold change /veh VCAN (11755009_s_at) / RFU RHOB (11743442_s_at) / Fold change /veh RHOB (11743442_s_at) / RFU RGS16 (11720943_a_at) / Fold change /veh RGS16 (11720943_a_at) / RFU RGS16 (11720944_at) / Fold change /veh RGS16 (11720944_at) / RFU, VPS4B / Fold change vs veh, VPS4B / RFU, CREB1 / Fold change vs veh, CREB1 / RFU, DNAJC13 / Fold change vs veh, DNAJC13 / RFU, GNAQ / Fold change vs veh, GNAQ / RFU, CDK5R1 / Fold change vs veh, CDK5R1 / RFU, ZRANB3 / Fold change vs veh, ZRANB3 / RFU, CUL4A / Fold change vs veh, CUL4A / RFU, CCNY / Fold change vs veh, CCNY / RFU, UFL1 / Fold change vs veh, UFL1 / RFU, COG3 / Fold change vs veh, COG3 / RFU, DIAPH2 / Fold change vs veh, DIAPH2 / RFU, SKA2 / Fold change vs veh, SKA2 / RFU, AFF3 / Fold change vs veh, AFF3 / RFU, LMF1 / Fold change vs veh, LMF1 / RFU, IPO11 / Fold change vs veh, IPO11 / RFU, DFFB / Fold change vs veh, DFFB / RFU, FOXP1 / Fold change vs veh, FOXP1 / RFU, CARD8 / Fold change vs veh, CARD8 / RFU, STRN3 / Fold change vs veh, STRN3 / RFU, ADK / Fold change vs veh, ADK / RFU, RASSF2 / Fold change vs veh, RASSF2 / RFU, WIPF1 / Fold change vs veh, WIPF1 / RFU, LARP1B / Fold change vs veh, LARP1B / RFU, RASA1 / Fold change vs veh, RASA1 / RFU, RB1 / Fold change vs veh, RB1 / RFU, PPFIA1 / Fold change vs veh, PPFIA1 / RFU, MAT2A / Fold change vs veh, MAT2A / RFU, CCT5 / Fold change vs veh, CCT5 / RFU, WDR92 / Fold change vs veh, WDR92 / RFU, CUX1 / Fold change vs veh, CUX1 / RFU, TTC7A / Fold change vs veh, TTC7A / RFU, TMEM135 / Fold change vs veh, TMEM135 / RFU, DEPTOR / Fold change vs veh, DEPTOR / RFU, CPM / Fold change vs veh, CPM / RFU, DNAJB6 / Fold change vs veh, DNAJB6 / RFU, CACNA2D3 / Fold change vs veh, CACNA2D3 / RFU, DTX4 / Fold change vs veh, DTX4 / RFU, TFCP2 / Fold change vs veh, TFCP2 / RFU, GMCL1 /// GMCL1P1 / Fold change vs veh, GMCL1 /// GMCL1P1 / RFU, AEBP2 / Fold change vs veh, AEBP2 / RFU, SNHG1 /// SNORD22 /// SNORD25 /// SNORD26 /// SNORD27 /// SNORD28 /// SNORD29 /// SNORD31 / Fold change vs veh, SNHG1 /// SNORD22 /// SNORD25 /// SNORD26 /// SNORD27 /// SNORD28 /// SNORD29 /// SNORD31 / Fold change (Aza/veh), C12orf56 (ProbeSet 11735607_a_at) / Fold change (ACY-1035/veh), C12orf56 (ProbeSet 11735607_a_at) / Fold change (Aza/veh), FGFR1OP (ProbeSet 11751329_s_at) / Fold change (ACY-1035/veh), FGFR1OP (ProbeSet 11751329_s_at) / Fold change (Aza/veh), VPS36 (ProbeSet 11739960_a_at) / Fold change (ACY-1035/veh), VPS36 (ProbeSet 11739960_a_at) / RFU SYPL1 (11715823_x_at) / Fold change /veh SYPL1 (11715823_x_at) / RFU IGFBP7 (11715501_s_at) / Fold change /veh IGFBP7 (11715501_s_at) / RFU REEP3 (11722064_at) / Fold change /veh REEP3 (11722064_at) / RFU IGLL1 (11728026_x_at) / Fold change /veh IGLL1 (11728026_x_at): dose or concentration left out as unconfirmed. Particulars: MV-4-11 cells, 48 hours.

With `Nc1ncn([C@@H]2O[C@H](CO)[C@@H](O)[C@H]2O)c(=O)n1` [azacitidine], the “Fold change /veh SAMD14 (11745864_x_at)” value was found to be 0.91.
